{"source": "patent US7708990B2", "about": "“Coenzyme Q compositions persisting in blood” (Kaneka Corporation, priority 2004, dated 2010)", "experiment": "Plasma coenzyme Q10 levels after oral administration to rats (HPLC assay)", "type": "in vivo, male SD strain rats", "details": "plasma coenzyme Q10 (reduced + oxidized), oral 100 mg/kg in soybean oil", "description": "A solution of reduced coenzyme Q10 (containing 1% by weight of oxidized coenzyme Q10) in soybean oil (reduced coenzyme Q10/soybean oil solution=20 mg/ml) was orally administered to male SD strain rats (6 weeks of age) at a dose of reduced coenzyme Q10 (containing 1% by weight of oxidized coenzyme Q10) of 100 mg/kg and, after 0.5, 1, 2, 3, 4, 5, 6, 8, 12 and 24 hours after administration, blood samples were collected and used for assaying plasma coenzyme Q10 (reduced coenzyme Q10 and oxidized coenzyme Q10) (n=4). Plasma coenzyme Q10 was assayed by HPLC. Thus, coenzyme Q7 (0.003 mg), ethanol (1 ml), distilled water (1 ml) and ferric chloride (0.01%) were added to each rat plasma sample (0.2 ml) and, after mixing up, hexane (3 ml) was added thereto and coenzyme Q10 was extracted with shaking. […]\nReduced coenzyme Q10 (containing 3% by weight of oxidized coenzyme Q10) was administered in the same manner as in Example 1, and plasma coenzyme Q10 levels were determined.\nOxidized coenzyme Q10 was administered in the same manner as in Example 1, and plasma coenzyme Q10 levels were determined.\nReduced coenzyme Q10 (containing 5% by weight of oxidized coenzyme Q10) was administered in the same manner as in Example 1, and plasma coenzyme Q10 levels were determined."}
{"smiles": "COC1=C(OC)C(=O)C(C/C=C(\\C)CC/C=C(\\C)CC/C=C(\\C)CC/C=C(\\C)CC/C=C(\\C)CC/C=C(\\C)CC/C=C(\\C)CC/C=C(\\C)CC/C=C(\\C)CCC=C(C)C)=C(C)C1=O", "note": "[Comparative Example 1, Oxidized coenzyme Q10]", "values": [{"measurement": "Cmax", "setting": "n=4", "value": 1.73, "unit": "µg/mL"}, {"measurement": "AUC", "setting": "n=4, sampling up to 24 hours", "value": 12.9, "unit": "µg·h/mL"}]}
